Reference: PMC11162469, “Discovery of RXFP2 genetic association in resistant hypertensive men and RXFP2 antagonists for the treatment of resistant hypertension” (Scientific Reports, 2024)
Bridge positions count the residues as written; N and C are the ends. Ends that are not written are not given here. I, II: the chains in the order shown.

Assays:
rat RXFP2 [1] = test: INSL3-stimulated cAMP assay in HEK293 with BacMam expression of rat RXFP2; type: cell-based; details: read-out: EC50 cAMP in HEK293 transiently expressing rat RXFP2
Experimental: Active compounds (RXFP2 HTRF IC50 < 100 µM, RXFP2 FLIPR IC50 < 100 µM) were profiled to determine selectivity and rat cross-reactivity (Fig. 2). The RXFP1 assay detected compound inhibition of relaxin EC80-induced cAMP in HEK293 transiently expressing human RXFP1 (hRXFP1). […] Only 7 of 104 compounds had rRXFP2 IC50 < 100 µM, indicating poorly conserved receptor binding sites across species. RXFP2 blockers were organized into two potential series, based on structural similarity. […] BRL-37274 and GSK618069 were identified as selective RXFP2 antagonists. […] Ultimately, poor chemical properties and low ligand efficiency limited further compound optimization (Table 1, Supplementary Figs. S6, S7).
The nucleotide sequences used in Bacmam transfections encoded RXFP protein as described in UniProt (Q9HBX9. RXFP1_human; Q8WXD0. RXFP2_human; Q5ECL0. RXFP2_rat). […]
(§1) cAMP generation was measured using the Lance Ultra cAMP kit as per manufacturer’s instructions (Perkin Elmer) in HEK293 cells transduced in tissue culture flasks with RXFP BacMam, incubated at 37 °C/5% CO2 for 18 h before assay. […] After a 30 min incubation, 4 µL of Lance detection reagent was added and the FRET signal read 1 h later using a TR-FRET-capable plate reader, with excitation at 340 nm and emission at 615 nm and 665 nm. […]

RXFP2 [2] = biological target: T1, RXFP2 (Homo sapiens, UniProt Q8WXD0); test: cell-based
T1 sequence (Q8WXD0 whole entry): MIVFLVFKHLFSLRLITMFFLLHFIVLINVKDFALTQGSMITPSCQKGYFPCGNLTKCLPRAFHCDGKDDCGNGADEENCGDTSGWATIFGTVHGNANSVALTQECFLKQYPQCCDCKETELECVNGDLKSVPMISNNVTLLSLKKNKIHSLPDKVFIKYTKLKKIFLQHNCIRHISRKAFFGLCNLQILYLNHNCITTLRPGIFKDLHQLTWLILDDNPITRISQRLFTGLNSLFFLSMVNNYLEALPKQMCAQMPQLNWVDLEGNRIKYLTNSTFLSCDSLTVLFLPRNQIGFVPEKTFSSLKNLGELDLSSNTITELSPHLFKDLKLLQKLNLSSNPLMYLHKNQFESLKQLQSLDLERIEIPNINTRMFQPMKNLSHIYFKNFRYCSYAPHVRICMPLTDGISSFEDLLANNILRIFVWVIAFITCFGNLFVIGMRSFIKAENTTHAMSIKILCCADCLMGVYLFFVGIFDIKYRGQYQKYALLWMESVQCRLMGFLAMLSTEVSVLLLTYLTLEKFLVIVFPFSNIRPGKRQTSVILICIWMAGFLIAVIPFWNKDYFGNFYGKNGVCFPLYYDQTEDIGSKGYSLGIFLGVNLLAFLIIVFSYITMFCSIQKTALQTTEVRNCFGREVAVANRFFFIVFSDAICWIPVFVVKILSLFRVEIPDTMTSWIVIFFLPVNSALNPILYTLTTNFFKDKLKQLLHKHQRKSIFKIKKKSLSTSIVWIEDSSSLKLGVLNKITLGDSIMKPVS

rat RXFP2 [3] = biological target: T2, rat RXFP2 (Rattus norvegicus, UniProt F7EMH8); test: INSL3-stimulated CYP11B1 mRNA expression in H295R stably expressing rat RXFP2; type: cell-based; design: expressed in transfected cells; details: 48 h of treatment; read-out: EC50 on CYP11B1 mRNA expression, H295R-rRXFP2
T2 sequence (F7EMH8 20-737): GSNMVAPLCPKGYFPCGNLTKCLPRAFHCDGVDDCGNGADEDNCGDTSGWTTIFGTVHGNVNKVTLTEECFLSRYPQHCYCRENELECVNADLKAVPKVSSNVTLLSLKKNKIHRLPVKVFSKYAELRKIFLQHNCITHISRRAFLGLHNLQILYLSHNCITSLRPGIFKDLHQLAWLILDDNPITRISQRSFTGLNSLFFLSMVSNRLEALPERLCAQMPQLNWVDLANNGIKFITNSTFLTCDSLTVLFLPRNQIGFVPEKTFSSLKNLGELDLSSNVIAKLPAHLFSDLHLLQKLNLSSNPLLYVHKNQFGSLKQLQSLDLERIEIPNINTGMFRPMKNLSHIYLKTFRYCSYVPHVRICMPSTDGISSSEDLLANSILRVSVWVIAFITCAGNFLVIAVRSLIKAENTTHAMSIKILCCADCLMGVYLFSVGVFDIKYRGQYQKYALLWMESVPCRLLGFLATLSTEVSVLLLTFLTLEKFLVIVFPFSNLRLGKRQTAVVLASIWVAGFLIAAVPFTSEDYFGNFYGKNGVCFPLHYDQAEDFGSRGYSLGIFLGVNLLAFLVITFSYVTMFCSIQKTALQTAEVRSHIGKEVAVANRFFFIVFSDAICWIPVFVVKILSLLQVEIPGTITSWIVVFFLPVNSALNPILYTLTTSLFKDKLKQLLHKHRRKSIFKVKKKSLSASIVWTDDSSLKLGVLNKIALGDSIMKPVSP
Experimental: (§2) RXFP2 antagonists were added to H295R-rRXFP2 before addition of INSL3 EC80 (3.5 nM) for 48 h, whereupon the cells and supernatants were collected. CYP11B1 and CYP11B2 mRNA were determined by qPCR and the RXFP2 blocker potencies were calculated (Fig. 5a). Fifteen antibodies have IC50s < 50 nM, and three of the top antibodies (1F2, 4G6, and 2D4) were selected for evaluation in steroid hormone secretion assays by ELISA.
(§3) Data entered as XY table, with x = [Inhibitor] (nM) and y = CYP11B2 or CYP11B1 fold change.

rat RXFP2 [4] = biological target: T2, rat RXFP2; test: INSL3-stimulated CYP11B2 mRNA expression in H295R stably expressing rat RXFP2; type: cell-based; design: expressed in transfected cells; details: 48 h of treatment; read-out: EC50 on CYP11B2 mRNA expression, H295R-rRXFP2
Experimental: as §2, §3

rat RXFP2 [5] = biological target: T2, rat RXFP2; test: INSL3-stimulated cAMP assay in HEK293 stably expressing rat RXFP2;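 further: cAMP measured with an HitHunter kit in 384-well plates, 11-point dose–response curves up to 1 µM antibody, four-parameter variable-slope fit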
RXFP2 [6] = biological target: T1, RXFP2; test: INSL3-stimulated cAMP assay in HEK293 stably expressing human RXFP2
RXFP2 [7] = biological target: T1, RXFP2; test: INSL3-stimulated cAMP assay in HEK293 with BacMam expression of human RXFP2; type: cell-based; design: expressed in transfected cells; host or cells: HEK293-MSRII, BacMam transduction (MOI 5); details: HTRF primary assay, read-out: EC50 cAMP in HEK293 expressing human RXFP2
Text: A high throughput screen (HTS) assay was developed using HEK293 cells transduced with RXFP2 via baculovirus-mediated gene transfer (BacMam)[40]. […] The HTS campaign identified 104 hits across 8 clusters showing blockade of hRXFP2.
The nucleotide sequences used in Bacmam transfections encoded RXFP protein as described in UniProt (Q9HBX9. RXFP1_human; Q8WXD0. RXFP2_human; Q5ECL0. RXFP2_rat). HEK293- MSRII cells were maintained in DMEM‐F12, supplemented with 10% fetal bovine serum (FBS) and L-glutamine at 37 °C/5% CO2. HEK293 stably expressing Gα16 were maintained in DMEM‐F12, supplemented with 10% FBS, L-glutamine and selection antibiotics at 37 °C/5% CO2. Transient receptor expression was achieved using modified baculoviruses (BacMam), generated according to manufacturer’s instructions using the Bac-to-Bac system (Invitrogen, UK) encoding hRXFP1, hRXFP2 or rRXFP2. Cells were transduced with RXFP-BacMam at an optimized multiplicity of infection (MOI) of 5.
as §1

## I: PTPEMREKLCGHHFVRALVRVCGGPRWSTEA / II: AAATNPARYCCLSGCTQQDLLTLCPY (disulfide I:10-II:11, I:22-II:24, II:10-II:15) [INSL3, Insulin-like peptide 3]
Rat RXFP2 [1]
  EC50: 13 nM
RXFP2 [2]
  EC50: 13.4 nM
Rat RXFP2 [3]
  EC50: 0.3 nM
Rat RXFP2 [4]
  EC50: 0.4 nM
Rat RXFP2 [5]
  EC50: 8.4 nM
RXFP2 [6]
  EC50: 2.9 nM
RXFP2 [7]
  EC50: 0.048 nM
